Laboratory results: patent publication US10407414B2, “Mannose derivatives for treating bacterial infections” (priority 2015, dated 2019)

Tested on: bacterial strain LF82 binding to the glycoprotein BSA-(Mannose)3 (FimH antagonists)
Assay: Bacterial Binding Assay (BBA)
Format: cell-based, Escherichia coli
Conditions: read-out: Bacterial Binding Assay IC50 ± SEM
In short: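 Luciferase-expressing E. coli LF82, grown overnight at 37 °C without shaking, added as 2×10^8 bacteria/mL suspension with compound in BSA/D-PBS binding buffer. Wells were coated with 0.5–2 μg/mL BSA-(Man)3 and BSA-blocked, with 40–75 min binding at room temperature. After washing, adherent bacteria were read by luciferase luminescence and IC50 derived.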

Structure (SMILES)	IC50
OC[C@H]1O[C@H](C#Cc2cc(-n3cc(-c4ccccc4)nn3)cc3cn[nH]c23)[C@@H](O)[C@@H](O)[C@@H]1O [Compound 66, (2R,3S,4R,5S,6R)-2-(hydroxymethyl)-6-[2-[5-(4-phenyltriazol-1-yl)-1H-indazol-7-yl]ethynyl]tetrahydropyran-3,4,5-triol]	2 nM
CN1CC=C(c2cc(C#C[C@H]3O[C@H](CO)[C@@H](O)[C@H](O)[C@@H]3O)c3[nH]ncc3c2)CC1 [Compound 67, (2R,3S,4R,5S,6R)-2-(hydroxymethyl)-6-[2-[5-(1-methyl-3,6-dihydro-2H-pyridin-4-yl)-1H-indazol-7-yl]ethynyl]tetrahydropyran-3,4,5-triol]	2 ± 0.9 nM
OC[C@H]1O[C@H](C#Cc2cc(C3=CCOCC3)cc3cn[nH]c23)[C@@H](O)[C@@H](O)[C@@H]1O [Compound 68, (2R,3S,4R,5S,6R)-2-[2-[5-(3,6-dihydro-2H-pyran-4-yl)-1H-indazol-7-yl]ethynyl]-6-(hydroxymethyl)tetrahydropyran-3,4,5-triol]	1 ± 0.4 nM
CCc1ccc(/C=C/c2cc(C#C[C@H]3O[C@H](CO)[C@@H](O)[C@H](O)[C@@H]3O)c3[nH]ncc3c2)cc1 [Compound 69, (2R,3S,4R,5S,6R)-2-[2-[5-[(E)-2-(4-ethylphenyl)vinyl]-1H-indazol-7-yl]ethynyl]-6-(hydroxymethyl)tetrahydropyran-3,4,5-triol]	13 ± 9 nM
OC[C@H]1O[C@H](C#Cc2cc(C3=CCCC3)cc3cn[nH]c23)[C@@H](O)[C@@H](O)[C@@H]1O [Compound 70, (2R,3S,4R,5S,6R)-2-[2-[5-(cyclopenten-1-yl)-1H-indazol-7-yl]ethynyl]-6-(hydroxymethyl)tetrahydropyran-3,4,5-triol]	0.2 ± 0.04 nM
CCOC(=O)C1CC=C(c2cc(C#C[C@H]3O[C@H](CO)[C@@H](O)[C@H](O)[C@@H]3O)c3[nH]ncc3c2)CC1 (stereo partly drawn) [Compound 71, ethyl 4-[7-[2-[(2R,3S,4R,5S,6R)-3,4,5-trihydroxy-6-(hydroxymethyl)tetrahydropyran-2-yl]ethynyl]-1H-indazol-5-yl]cyclohex-3-ene-1-carboxylate]	0.6 ± 0.2 nM
CC(C)(C)OC(=O)n1ccc(-c2cc(C#C[C@H]3O[C@H](CO)[C@@H](O)[C@H](O)[C@@H]3O)c3[nH]ncc3c2)c1 [Compound 72, tert-butyl 3-[7-[2-[(2R,3S,4R,5S,6R)-3,4,5-trihydroxy-6-(hydroxymethyl)tetrahydropyran-2-yl]ethynyl]-1H-indazol-5-yl]pyrrole-1-carboxylate]	7 ± 4 nM
COc1ccc(-c2cc(C#C[C@H]3O[C@H](CO)[C@@H](O)[C@H](O)[C@@H]3O)c3[nH]ncc3c2)cn1 [Compound 73, (2R,3S,4R,5S,6R)-2-(hydroxymethyl)-6-[2-[5-(6-methoxy-3-pyridyl)-1H-indazol-7-yl]ethynyl]tetrahydropyran-3,4,5-triol]	0.5 ± 0.09 nM
O=c1ccc(-c2cc(C#C[C@H]3O[C@H](CO)[C@@H](O)[C@H](O)[C@@H]3O)c3[nH]ncc3c2)c[nH]1 [Compound 74, 5-[7-[2-[(2R,3S,4R,5S,6R)-3,4,5-trihydroxy-6-(hydroxymethyl)tetrahydropyran-2-yl]ethynyl]-1H-indazol-5-yl]-1H-pyridin-2-one]	0.3 ± 0.05 nM
OC[C@H]1O[C@H](C#Cc2cc(-c3ccc(OCc4ccccc4)nc3)cc3cn[nH]c23)[C@@H](O)[C@@H](O)[C@@H]1O [Compound 75, (2R,3S,4R,5S,6R)-2-[2-[5-(6-benzyloxy-3-pyridyl)-indazol-7-yl]ethynyl]-6-(hydroxymethyl)tetrahydropyran-3,4,5-triol]	2 ± 0.7 nM
Cc1cc(=O)n(C)cc1-c1cc(C#C[C@H]2O[C@H](CO)[C@@H](O)[C@H](O)[C@@H]2O)c2[nH]ncc2c1 [Compound 76, 1,4-dimethyl-5-[7-[2-[(2R,3S,4R,5S,6R)-3,4,5-trihydroxy-6-(hydroxymethyl)tetrahydropyran-2-yl]ethynyl]-1H-indazol-5-yl]pyridin-2-one]	0.3 ± 0.09 nM
Cc1ccncc1-c1cc(C#C[C@H]2O[C@H](CO)[C@@H](O)[C@H](O)[C@@H]2O)c2[nH]ncc2c1 [Compound 77, (2R,3S,4R,5S,6R)-2-(hydroxymethyl)-6-[2-[5-(4-methyl-3-pyridyl)-1H-indazol-7-yl]ethynyl]tetrahydropyran-3,4,5-triol]	0.1 ± 0.02 nM
COc1ncc(C)cc1-c1cc(C#C[C@H]2O[C@H](CO)[C@@H](O)[C@H](O)[C@@H]2O)c2[nH]ncc2c1 [Compound 78, (2R,3S,4R,5S,6R)-2-(hydroxymethyl)-6-[2-[5-(2-methoxy-5-methyl-3-pyridyl)-1H-indazol-7-yl]ethynyl]tetrahydropyran-3,4,5-triol]	2 ± 0.6 nM
Cc1cc(-c2cc(C#C[C@H]3O[C@H](CO)[C@@H](O)[C@H](O)[C@@H]3O)c3[nH]ncc3c2)c[nH]c1=O [Compound 79, 3-methyl-5-[7-[2-[(2R,3S,4R,5S,6R)-3,4,5-trihydroxy-6-(hydroxymethyl)tetrahydropyran-2-yl]ethynyl]-1H-indazol-5-yl]-1H-pyridin-2-one]	0.4 ± 0.1 nM
Cc1nc(O)ccc1-c1cc(C#C[C@H]2O[C@H](CO)[C@@H](O)[C@H](O)[C@@H]2O)c2[nH]ncc2c1 [Compound 80, (2R,3S,4R,5S,6R)-2-(hydroxymethyl)-6-[2-[5-(6-hydroxy-2-methyl-3-pyridyl)-1H-indazol-7-yl]ethynyl]tetrahydropyran-3,4,5-triol]	0.2 ± 0.08 nM
OC[C@H]1O[C@H](C#Cc2cc(-c3ccc(F)cc3F)cc3cn[nH]c23)[C@@H](O)[C@@H](O)[C@@H]1O [Compound 81, (2R,3S,4R,5S,6R)-2-[2-[5-(2,4-difluorophenyl)-1H-indazol-7-yl]ethynyl]-6-(hydroxymethyl)tetrahydropyran-3,4,5-triol]	0.4 ± 0.2 nM
Cc1ccc(C)c(-c2cc(C#C[C@H]3O[C@H](CO)[C@@H](O)[C@H](O)[C@@H]3O)c3[nH]ncc3c2)c1 [Compound 82, (2R,3S,4R,5S,6R)-2-[2-[5-(2,5-dimethylphenyl)-1H-indazol-7-yl]ethynyl]-6-(hydroxymethyl)tetrahydropyran-3,4,5-triol]	1 nM
Cc1cc(-c2cc(C#C[C@H]3O[C@H](CO)[C@@H](O)[C@H](O)[C@@H]3O)c3[nH]ncc3c2)cc(C)n1 [Compound 83, (2R,3S,4R,5S,6R)-2-[2-[5-(2,6-dimethyl-4-pyridyl)-1H-indazol-7-yl]ethynyl]-6-(hydroxymethyl)tetrahydropyran-3,4,5-triol]	0.7 ± 0.5 nM
Cc1cc(-c2cc(C#C[C@H]3O[C@H](CO)[C@@H](O)[C@H](O)[C@@H]3O)c3[nH]ncc3c2)ccn1 [Compound 84, (2R,3S,4R,5S,6R)-2-(hydroxymethyl)-6-[2-[5-(2-methyl-4-pyridyl)-1H-indazol-7-yl]ethynyl]tetrahydropyran-3,4,5-triol]	0.5 ± 0.2 nM
O=c1cc(-c2cc(C#C[C@H]3O[C@H](CO)[C@@H](O)[C@H](O)[C@@H]3O)c3[nH]ncc3c2)cc[nH]1 [Compound 85, 4-[7-[2-[(2R,3S,4R,5S,6R)-3,4,5-trihydroxy-6-(hydroxymethyl)tetrahydropyran-2-yl]ethynyl]-1H-indazol-5-yl]-1H-pyridin-2-one]	0.4 ± 0.2 nM
OC[C@H]1O[C@H](C#Cc2cc(-c3cc(F)ccc3F)cc3cn[nH]c23)[C@@H](O)[C@@H](O)[C@@H]1O [Compound 86, (2R,3S,4R,5S,6R)-2-[2-[5-(2,5-difluorophenyl)-1H-indazol-7-yl]ethynyl]-6-(hydroxymethyl)tetrahydropyran-3,4,5-triol]	1 ± 0.2 nM
CCc1ccccc1-c1cc(C#C[C@H]2O[C@H](CO)[C@@H](O)[C@H](O)[C@@H]2O)c2[nH]ncc2c1 [Compound 87]	1 nM
Cc1ccc(-c2cc(C#C[C@H]3O[C@H](CO)[C@@H](O)[C@H](O)[C@@H]3O)c3[nH]ncc3c2)c(C)c1 [Compound 88, (2R,3S,4R,5S,6R)-2-[2-[5-(2,4-dimethylphenyl)-1H-indazol-7-yl]ethynyl]-6-(hydroxymethyl)tetrahydropyran-3,4,5-triol]	2 nM
Cc1ccc(C#N)cc1-c1cc(C#C[C@H]2O[C@H](CO)[C@@H](O)[C@H](O)[C@@H]2O)c2[nH]ncc2c1 [Compound 89, 4-methyl-3-[7-[2-[(2R,3S,4R,5S,6R)-3,4,5-trihydroxy-6-(hydroxymethyl)tetrahydropyran-2-yl]ethynyl]-1H-indazol-5-yl]benzonitrile]	0.5 ± 0.04 nM
CNC(=O)c1ccc(F)c(-c2cc(C#C[C@H]3O[C@H](CO)[C@@H](O)[C@H](O)[C@@H]3O)c3[nH]ncc3c2)c1 [Compound 90, 4-fluoro-N-methyl-3-[7-[2-[(2R,3S,4R,5S,6R)-3,4,5-trihydroxy-6-(hydroxymethyl)tetrahydropyran-2-yl]ethynyl]-1H-indazol-5-yl]benzamide]	3 nM
Cc1cc(O)ccc1-c1cc(C#C[C@H]2O[C@H](CO)[C@@H](O)[C@H](O)[C@@H]2O)c2[nH]ncc2c1 [Compound 91, (2R,3S,4R,5S,6R)-2-(hydroxymethyl)-6-[2-[5-(4-hydroxy-2-methyl-phenyl)-1H-indazol-7-yl]ethynyl]tetrahydropyran-3,4,5-triol]	0.3 ± 0.03 nM
CNC(=O)c1cc(-c2cc(C#C[C@H]3O[C@H](CO)[C@@H](O)[C@H](O)[C@@H]3O)c3[nH]ncc3c2)ccn1 [Compound 92, N-methyl-4-[7-[2-[(2R,3S,4R,5S,6R)-3,4,5-trihydroxy-6-(hydroxymethyl)tetrahydropyran-2-yl]ethynyl]-1H-indazol-5-yl]pyridine-2-carboxamide]	1 nM
CCN(CC)S(=O)(=O)c1ccc(C)c(-c2cc(C#C[C@H]3O[C@H](CO)[C@@H](O)[C@H](O)[C@@H]3O)c3[nH]ncc3c2)c1 [Compound 93, N,N-diethyl-4-methyl-3-[7-[2-[(2R,3S,4R,5S,6R)-3,4,5-trihydroxy-6-(hydroxymethyl)tetrahydropyran-2-yl]ethynyl]-1H-indazol-5-yl]benzenesulfonamide]	1 nM
Cc1cc(F)ccc1-c1cc(C#C[C@H]2O[C@H](CO)[C@@H](O)[C@H](O)[C@@H]2O)c2[nH]ncc2c1 [Compound 94, (2R,3S,4R,5S,6R)-2-[2-[5-(4-fluoro-2-methyl-phenyl)-1H-indazol-7-yl]ethynyl]-6-(hydroxymethyl)tetrahydropyran-3,4,5-triol]	0.6 ± 0.3 nM
